From the NIST ThermoML archive (doi:10.1016/j.fluid.2015.04.017)
Numbers after ± are expanded uncertainties.

Legend:
[1] = refractive index (Na D-line) (dimensionless); details: 298.15 K; 101.33 kPa; Liquid; Standard Abbe refractometry
[2] = 298.15 K, 101.33 kPa, Liquid; for viscosity: Concentric cylinders viscometry; for mass density: Vibrating tube method
[3] = refractive index (Na D-line) (dimensionless); xn = mol fraction of the nth substance listed; details: 101 kPa, Liquid, Standard Abbe refractometry, x2 = 0
[4] = xn = mol fraction of the nth substance listed; details: 101 kPa, Liquid, x2 = 0; for viscosity: Concentric cylinders viscometry; for mass density: Vibrating tube method

With CCC(C)=O [butanone] the refractive index [1] was 1.37662 ± 0.00033, the viscosity [2] was 0.3888 ± 0.0057 mPa·s and the mass density [2] was 800.872 ± 0.14 kg/m3.
CN1CCCC1=O [N-methylpyrrolidone] + CCOC(=O)C(C)O gave a refractive index ([3]; 288.15 K) of 1.47305 ± 0.00033, a refractive index ([3]; 293.15 K) of 1.47088 ± 0.00033 and a refractive index ([3]; 298.15 K) of 1.4687 ± 0.00033. It also gave a refractive index ([3]; 303.15 K) of 1.46651 ± 0.00033, a refractive index ([3]; 308.15 K) of 1.46434 ± 0.00033 and a refractive index ([3]; 313.15 K) of 1.46211 ± 0.00033. The refractive index ([3]; 318.15 K) was 1.45998 ± 0.00033, the refractive index ([3]; 323.15 K) was 1.45783 ± 0.00033 and the viscosity ([4]; 288.15 K) was 2.088 ± 0.02 mPa·s. The mass density ([4]; 288.15 K) was 1039.4 ± 0.1 kg/m3, the viscosity ([4]; 293.15 K) was 1.91 ± 0.018 mPa·s and the mass density ([4]; 293.15 K) was 1034.92 ± 0.099 kg/m3. It also gave a viscosity ([4]; 298.15 K) of 1.757 ± 0.017 mPa·s, a mass density ([4]; 298.15 K) of 1030.45 ± 0.096 kg/m3 and a viscosity ([4]; 303.15 K) of 1.623 ± 0.016 mPa·s. The mass density ([4]; 303.15 K) was 1025.99 ± 0.094 kg/m3, the viscosity ([4]; 308.15 K) was 1.505 ± 0.015 mPa·s and the mass density ([4]; 308.15 K) was 1021.52 ± 0.092 kg/m3. For the same molecule, the viscosity ([4]; 313.15 K) was 1.401 ± 0.014 mPa·s, the mass density ([4]; 313.15 K) was 1017.07 ± 0.09 kg/m3 and the viscosity ([4]; 318.15 K) was 1.307 ± 0.013 mPa·s. It also gave a mass density ([4]; 318.15 K) of 1012.61 ± 0.088 kg/m3, a viscosity ([4]; 323.15 K) of 1.231 ± 0.013 mPa·s and a mass density ([4]; 323.15 K) of 1008.16 ± 0.086 kg/m3.
With CCC(C)=O [butanone] + CCOC(=O)C(C)O the refractive index ([3]; 288.15 K) was 1.3817 ± 0.00033, the refractive index ([3]; 293.15 K) was 1.37918 ± 0.00033 and the refractive index ([3]; 298.15 K) was 1.37662 ± 0.00033. For the same molecule, the refractive index ([3]; 303.15 K) was 1.37402 ± 0.00033, the refractive index ([3]; 308.15 K) was 1.37138 ± 0.00033 and the refractive index ([3]; 313.15 K) was 1.36871 ± 0.00033. The refractive index ([3]; 318.15 K) was 1.36615 ± 0.00033, the refractive index ([3]; 323.15 K) was 1.36338 ± 0.00033 and the viscosity ([4]; 288.15 K) was 0.4217 ± 0.0059 mPa·s. The mass density ([4]; 288.15 K) was 811.324 ± 0.14 kg/m3, the viscosity ([4]; 293.15 K) was 0.4054 ± 0.0058 mPa·s and the mass density ([4]; 293.15 K) was 806.111 ± 0.14 kg/m3. For the same molecule, the viscosity ([4]; 298.15 K) was 0.3888 ± 0.0057 mPa·s, the mass density ([4]; 298.15 K) was 800.872 ± 0.14 kg/m3 and the viscosity ([4]; 303.15 K) was 0.3712 ± 0.0055 mPa·s. For the same molecule, the mass density ([4]; 303.15 K) was 795.603 ± 0.14 kg/m3, the viscosity ([4]; 308.15 K) was 0.3542 ± 0.0054 mPa·s and the mass density ([4]; 308.15 K) was 790.3 ± 0.14 kg/m3. The viscosity ([4]; 313.15 K) was 0.3368 ± 0.0053 mPa·s, the mass density ([4]; 313.15 K) was 784.965 ± 0.15 kg/m3 and the viscosity ([4]; 318.15 K) was 0.3194 ± 0.0052 mPa·s. It also gave a mass density ([4]; 318.15 K) of 779.589 ± 0.15 kg/m3, a viscosity ([4]; 323.15 K) of 0.3036 ± 0.0051 mPa·s and a mass density ([4]; 323.15 K) of 774.175 ± 0.15 kg/m3.
Work on CN1CCCC1=O [N-methylpyrrolidone] yielded a refractive index [1] of 1.4687 ± 0.00033, a viscosity [2] of 1.757 ± 0.017 mPa·s and a mass density [2] of 1030.45 ± 0.099 kg/m3.
Cc1ccccc1 [toluene] showed a refractive index [1] of 1.49299 ± 0.00033, a viscosity [2] of 0.567 ± 0.007 mPa·s and a mass density [2] of 862.206 ± 0.12 kg/m3.
Molecule Cc1ccccc1 [toluene] + CCOC(=O)C(C)O has a refractive index ([3]; 288.15 K) of 1.49883 ± 0.00033, a refractive index ([3]; 293.15 K) of 1.49592 ± 0.00033 and a refractive index ([3]; 298.15 K) of 1.49299 ± 0.00033. For the same molecule, the refractive index ([3]; 303.15 K) was 1.49012 ± 0.00033, the refractive index ([3]; 308.15 K) was 1.48731 ± 0.00033 and the refractive index ([3]; 313.15 K) was 1.48454 ± 0.00033. The refractive index ([3]; 318.15 K) was 1.48195 ± 0.00033, the refractive index ([3]; 323.15 K) was 1.47928 ± 0.00033 and the viscosity ([4]; 288.15 K) was 0.6251 ± 0.0075 mPa·s. For the same molecule, the mass density ([4]; 288.15 K) was 871.501 ± 0.12 kg/m3, the viscosity ([4]; 293.15 K) was 0.5961 ± 0.0072 mPa·s and the mass density ([4]; 293.15 K) was 866.859 ± 0.12 kg/m3. The viscosity ([4]; 298.15 K) was 0.567 ± 0.007 mPa·s, the mass density ([4]; 298.15 K) was 862.206 ± 0.12 kg/m3 and the viscosity ([4]; 303.15 K) was 0.54 ± 0.0068 mPa·s. For the same molecule, the mass density ([4]; 303.15 K) was 857.541 ± 0.12 kg/m3, the viscosity ([4]; 308.15 K) was 0.5128 ± 0.0066 mPa·s and the mass density ([4]; 308.15 K) was 852.861 ± 0.13 kg/m3. It also gave a viscosity ([4]; 313.15 K) of 0.4866 ± 0.0064 mPa·s, a mass density ([4]; 313.15 K) of 848.164 ± 0.13 kg/m3 and a viscosity ([4]; 318.15 K) of 0.462 ± 0.0062 mPa·s. The mass density ([4]; 318.15 K) was 843.444 ± 0.13 kg/m3, the viscosity ([4]; 323.15 K) was 0.4435 ± 0.0061 mPa·s and the mass density ([4]; 323.15 K) was 838.707 ± 0.13 kg/m3.
CCOC(=O)C(C)O (racemic) [DL-ethyl lactate] gave a refractive index [1] of 1.41076 ± 0.00037, a viscosity [2] of 2.39 ± 0.025 mPa·s and a mass density [2] of 1028.39 ± 0.25 kg/m3.
